We go through 10 compounds from patent publication US20180064687A1, “PHARMACEUTICAL COMPOSITION FOR THE PREVENTION AND TREATMENT OF DISEASES ASSOCIATED WITH ELEVATED INDUCIBLE NITRIC OXIDE SYNTHASE” (AKCIJU SABIEDRIBA "OLAINFARM', priority 2015, published 2018).

Structures are written as SMILES. Entries after “also recorded” stand apart in the source; their conditions may differ. Counter-ions that a name gives are not always drawn. Where only a bound is given, the exact number is not on record here.

Data set [1] relates to formalin-induced nociceptive responses. The settings on record: cited from earlier work; for nociceptive responses to formalin-produced peripheral neuropathy: systemic and intrathecal administration, mice and rats.
For data set [2], the system named is formalin-induced paw licking. The data set can be described thus: Formalin-induced paw licking test (formalin-induced peripheral neuropathy). Format: in vivo. As to conditions: mice, pre-treatment 50 mg/kg. The procedure:
(§1) Male ICR mice weighing 25-30 g were obtained from the Laboratory of Experimental Animals, Riga Stradins University (Riga, Latvia), and housed under standard conditions (21-23° C., relative humidity 65%±10%, 12 h light-dark cycle) with unlimited access to standard food (R70 diet, Lactamin AB, Sweden) and water. The experimental procedures were performed in accordance with the guidelines reported in EU Directive 2010/63/EU and in accordance with local laws and policies; all of the procedures were approved by the Latvian Animal Protection Ethical Committee of Food and Veterinary Service in Riga, Latvia. To eliminate systematic differences between the treatment groups, the animals were randomly assigned to their respective experimental groups (12 animals in each group for formalin test and 6 animals in each group for LPS test). To avoid subjective factors in the rating process, all experimental procedures were performed in a blinded fashion.
Formalin-induced licking paw test was performed as described previously by Zvejniece et al 2006 (Zvejniece L., Muceniece R., Krigere L., Dambrova M., Klusa V. Z. Pharmacol. Biochem. Behav. 2006, 85 (2),287-91). Briefly, mice were gently restrained and 30 μl of formalin solution (1.5% in saline) was injected s.c. into the plantar surface of the right hind paw, using a microsyringe with a 27-gauge needle. Each mouse was then placed in an individual clear Plexiglas observation chamber (30×20×30 cm) and the total licking time of hind paw of each mouse was registered and quantified in subsequent 5-minute intervals for 50 minutes. The recording of licking time started immediately (first phase) and lasted for 5 min. The late phase (second phase) started about 15-20 min after formalin injection and lasted up to 35 min.

For data set [3] the following is noted: in vivo; cited from earlier work.
For data set [4] the following is noted: i.p. administration; cited from earlier work.
Data set [5] has as its system LPS-induced hypothermia. Briefly: LPS-induced hypothermia (rectal temperature), septic shock model. Format: in vivo. The settings on record: mice; 50 mg/kg i.p. simultaneously with LPS 20 mg/kg; 6 h after injection. Here is the method: as §1
The hypothermia was induced by an i.p. injection of LPS at a dose of 20 mg/kg. Control animals received i.p. injection of saline (0.9% NaCl). […] The rectal temperature of animals was measured using a thermometer (Thermalert TH-5, USA) at 5 min before LPS or saline injection and 6 hours after injection.

The subject of data set [6] is iNOS gene expression. Briefly: LPS-induced iNOS gene overexpression in brain tissue, septic shock model (quantitative RT-PCR). Format: in vivo. As to conditions: mice; 50 mg/kg injected simultaneously with LPS 20 mg/kg i.p.; tissue sampled 6 h after; compared with LPS group. Here is the method:
as §1
The iNOS gene expression was stimulated by a single intraperitoneal (i.p.) injection of LPS at a dose of 20 mg/kg 6 h before the tissue sampling. Control animals received i.p. injection of saline (0.9% NaCl). […]
Brain tissue after sampling were immediately frozen in liquid nitrogen and stored at −80° C. […] Samples were diluted with water at v/v ratio of 1:20 and the quality and quantity of extracted total RNA were examined by measuring the absorbance at 230, 260 and 280 nm with a μQuant™ (BioTek) spectrophotometer. […] Quantitative RT-PCR analysis for iNOS was performed by mixing synthesized cDNA (diluted with water at v/v ratio of 1:10), appropriate primers, and SYBR® Green Master Mix (Applied Biosystems™, USA) and run in the Applied Biosystems Prism 7500 according to the manufacturer's protocol. The transcript levels for the constitutive housekeeping gene product β-actin were quantitatively measured for each sample, and PCR data were reported as the number of transcripts per number of β-actin mRNA molecules.

In data set [7] the test system is NOS. As to conditions: patients with septic shock, cited from earlier work.
Setting [8] is: phase II, compared to saline treated group.

Regarding `O=[N+]([O-])c1cccc2cn[nH]c12` [7-nitroindazole], the “nociceptive responses to formalin-produced peripheral neuropathy” value in data set [1] is given as “reduces nociceptive responses”.
For `NC(=O)CN1C[C@@H](c2ccccc2)CC1=O` [(4R)-2-(4-phenyl-2-oxopyrrolidin-1-yl)acetamide], the “reduction of the paw licking behavior in phase II” value in data set [2] (phase II) is listed as 46%. Further, in data set [2] (setting [8]), the “paw licking response time in II phase” value is “significant inhibition”. Moreover, in data set [3], the excretion from body result is on record as “totally excreted from body in unmetabolized form”. The “dose up to which no side effects on the body system are caused” value in data set [4] was at most 250 mg/kg. Moreover, the “LPS-induced hypothermia (rectal temperature)” value in data set [5] is given as “significantly inhibited”. Besides, the “LPS-induced iNOS gene expression in brain tissue” value (“LPS-induced iNOS gene expression” below) in data set [6] is given as “highly effective; also recorded: significantly reduced”.
On to `NC(=O)CN1CC(c2ccccc2)CC1=O` [(4R,S)-2-(4-phenyl-2-oxopyrrolidin-1-yl)acetamide], for which, in data set [2] (phase I, compared to saline treated group), the “paw-licking time in I phase” value was “did not reduce; also recorded: almost no effect”. The “paw licking response time in II phase” value in data set [2] (setting [8]) is “did not reduce; also recorded: almost no effect”. The “LPS-induced iNOS gene expression” value in data set [6] was “tendency to reduce LPS action; also recorded: did not reduce”.
`NC(=O)CN1C[C@H](c2ccccc2)CC1=O` [(4S)-2-(4-phenyl-2-oxopyrrolidin-1-yl)acetamide]: in data set [6], the “LPS-induced iNOS gene expression” value was “absolutely inactive; also recorded: did not reduce”.
Take `N#Cc1ccc(C(=O)N2CCC3(CC2)N=C(N)c2c(F)ccc(F)c2N3)cn1` [AR-C102222]: the “peripheral nociception in formalin-induced paw licking test II phase” value (“peripheral nociception” below) in data set [1] is listed as “reduce peripheral nociception”.
Regarding `COC(=O)[C@@H](N)CCCNC(=N)N[N+](=O)[O-]` [L-NAME, Nω-nitro-L-arginine methyl ester], in data set [7] (placebo-controlled double-blind study), the “results of the phase II trial in septic shock” value is “promising”. Moreover, the “mortality in the treatment group, phase III trial” value in data set [7] (trial terminated prematurely) is reported as “increase in mortality”. For the same compound, the “nociceptive responses to formalin-produced peripheral neuropathy” value in data set [1] is listed as “reduces nociceptive responses”.
Turning to `N=C(N)NN` [aminoguanidine hydrochloride], in data set [1], the “peripheral nociception” value is “reduce peripheral nociception”.
Take `CN(C)CCC=C1c2ccccc2CCc2ccccc21` [amitriptyline]: in data set [1], the “peripheral nociception” value is on record as “anti-nociceptive activity”.
On to `NCC1(CC(=O)O)CCCCC1` [gabapentin], for which, in data set [1], the “peripheral nociception” value was “anti-nociceptive activity”.
For `CC(C)C[C@H](CN)CC(=O)O` [pregabalin], in data set [1], the “peripheral nociception” value is “anti-nociceptive activity”.
